# Measurements as given in US5093256A, “Essentially purified, thermostable and alkalophilic lipase from Bacillus Sp. A30-1 ATCC 53841” (priority 1989, dated 1992).
# Like-named read-outs stand apart in the source and are kept apart here.
# System: Bacillus sp. A30-1 ATCC No. 53841 thermostable lipase
# Conditions: 30° C., peroxide removed by dialysis before assay; for residual activity (of the original activity) after incubation with hydrogen peroxide: 0.5% hydrogen peroxide
# Description: Lipase production was routinely assayed by monitoring the fatty acid released from corn oil. The assay is based on the fact that the dye Rhodamine 6G in benzene solution reacts with an acid to form a chromophore which can be spectrophotometrically quantified. One tenth mL of cell free culture broth (obtained by removing cells by centrifugation) was mixed with 0.02 mL of a 25% corn oil solution in 100 mM Tris-Hcl buffer (pH 9.5) and then incubated at 60° C. for 1 hr. After appropriate time the reaction was stopped with the addition of 0.1N HCl in 95% ethanol. The resulting fatty acids were extracted with petroleum ether, and evaporated to dryness under vacuum. Subsequently, diluted Rhodamine 6G stock solution was added. After fifteen minutes at room temperature the absorbance of the resulting reaction mixture was read at 515 nm. One unit of lipase is defined as the amount that will liberate 1 μmole of fatty acid per hour under the assay condition.
# To an aliquot of enzyme solution containing a known amount of activity, different amounts of hydrogen peroxide were added to final concentration of 0.5, 1, 2, and 4% respectively. These were kept at 30° C. for different periods of time. Then hydrogen peroxide contained in enzyme solution was eliminated by dialysis against water. Residual activities were measured by the analytical methods described above.
smiles,measurement,setting,value
OO [hydrogen peroxide],residual activity (of the original activity) after incubation with hydrogen peroxide,1 hr,100%
same,residual activity (of the original activity) after incubation with hydrogen peroxide,19 hrs,60%
same,residual activity after incubation with hydrogen peroxide,"4% hydrogen peroxide, 5 hrs",75%
